{"source": "patent US20090105270A1", "about": "“Kinase inhibition and anticancer therapy” (priority 2007, published 2009)", "key": {"[1]": {"target": "JNK2α2(h) (Homo sapiens, UniProt P45984)", "assay": "Upstate kinase activity inhibition assay JNK2α2(h)"}, "[2]": {"target": "T1, SGK(h) (Homo sapiens, UniProt O00141, S422D)", "T1 construct": "purchased Upstate (KinaseProfiler service)", "T1 sequence (O00141 60-431 S422D limits assumed)": "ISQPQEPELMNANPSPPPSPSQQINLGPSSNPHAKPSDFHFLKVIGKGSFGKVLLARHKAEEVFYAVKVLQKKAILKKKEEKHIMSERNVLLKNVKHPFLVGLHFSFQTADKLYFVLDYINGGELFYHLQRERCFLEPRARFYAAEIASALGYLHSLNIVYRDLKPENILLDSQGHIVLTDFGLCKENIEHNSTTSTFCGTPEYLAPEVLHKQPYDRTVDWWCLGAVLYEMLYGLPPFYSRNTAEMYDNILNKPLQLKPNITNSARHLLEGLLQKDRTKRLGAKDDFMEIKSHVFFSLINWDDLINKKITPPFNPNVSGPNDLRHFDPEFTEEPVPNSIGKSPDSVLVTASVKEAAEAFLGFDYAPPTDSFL", "assay": "Upstate kinase activity inhibition assay SGK(h)", "type": "biochemical", "conditions": "40 min; read-out: percentage of enzyme activity that remains"}, "[3]": {"target": "T2, Pyk2(h) (Homo sapiens, UniProt Q14289)", "T2 construct": "purchased Upstate (KinaseProfiler service)", "assay": "Upstate kinase activity inhibition assay Pyk2(h)", "type": "biochemical", "conditions": "40 min; read-out: percentage of enzyme activity that remains"}, "[4]": {"target": "T3, PKBγ(h) (Homo sapiens, UniProt Q9Y243)", "T3 construct": "purchased Upstate (KinaseProfiler service)", "assay": "Upstate kinase activity inhibition assay PKBγ(h)", "type": "biochemical", "conditions": "40 min; read-out: percentage of enzyme activity that remains"}, "[5]": {"target": "T4, EGFR(L858R)(h) (Homo sapiens, UniProt P00533, L858R)", "T4 construct": "purchased Upstate (KinaseProfiler service)", "assay": "Upstate kinase activity inhibition assay EGFR(L858R)(h)", "type": "biochemical", "conditions": "4 μM Compound E"}, "[6]": {"target": "BRK(h) (Homo sapiens, UniProt Q13882)", "sequence (Q13882 whole entry)": "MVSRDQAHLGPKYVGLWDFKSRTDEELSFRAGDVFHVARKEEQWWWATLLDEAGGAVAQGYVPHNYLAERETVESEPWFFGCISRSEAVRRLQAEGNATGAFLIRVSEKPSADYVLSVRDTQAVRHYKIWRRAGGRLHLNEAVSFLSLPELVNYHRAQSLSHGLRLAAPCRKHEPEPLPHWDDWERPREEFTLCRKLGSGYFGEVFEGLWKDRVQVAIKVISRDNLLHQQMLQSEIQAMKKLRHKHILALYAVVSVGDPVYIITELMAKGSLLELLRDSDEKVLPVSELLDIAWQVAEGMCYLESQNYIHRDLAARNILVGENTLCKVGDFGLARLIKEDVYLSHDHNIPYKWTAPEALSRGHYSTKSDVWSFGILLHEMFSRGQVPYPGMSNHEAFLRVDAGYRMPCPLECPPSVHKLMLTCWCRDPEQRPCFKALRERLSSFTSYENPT", "assay": "Upstate kinase activity inhibition assay BRK(h)", "conditions": "40 min, read-out: percentage of enzyme activity that remains"}, "[7]": {"target": "Flt3(h) (Homo sapiens, UniProt P36888)", "assay": "Upstate kinase activity inhibition assay Flt3(h)", "conditions": "40 min, read-out: percentage of enzyme activity that remains"}, "[8]": {"target": "EphA2(h) (Homo sapiens, UniProt P29317)", "sequence (P29317 24-976)": "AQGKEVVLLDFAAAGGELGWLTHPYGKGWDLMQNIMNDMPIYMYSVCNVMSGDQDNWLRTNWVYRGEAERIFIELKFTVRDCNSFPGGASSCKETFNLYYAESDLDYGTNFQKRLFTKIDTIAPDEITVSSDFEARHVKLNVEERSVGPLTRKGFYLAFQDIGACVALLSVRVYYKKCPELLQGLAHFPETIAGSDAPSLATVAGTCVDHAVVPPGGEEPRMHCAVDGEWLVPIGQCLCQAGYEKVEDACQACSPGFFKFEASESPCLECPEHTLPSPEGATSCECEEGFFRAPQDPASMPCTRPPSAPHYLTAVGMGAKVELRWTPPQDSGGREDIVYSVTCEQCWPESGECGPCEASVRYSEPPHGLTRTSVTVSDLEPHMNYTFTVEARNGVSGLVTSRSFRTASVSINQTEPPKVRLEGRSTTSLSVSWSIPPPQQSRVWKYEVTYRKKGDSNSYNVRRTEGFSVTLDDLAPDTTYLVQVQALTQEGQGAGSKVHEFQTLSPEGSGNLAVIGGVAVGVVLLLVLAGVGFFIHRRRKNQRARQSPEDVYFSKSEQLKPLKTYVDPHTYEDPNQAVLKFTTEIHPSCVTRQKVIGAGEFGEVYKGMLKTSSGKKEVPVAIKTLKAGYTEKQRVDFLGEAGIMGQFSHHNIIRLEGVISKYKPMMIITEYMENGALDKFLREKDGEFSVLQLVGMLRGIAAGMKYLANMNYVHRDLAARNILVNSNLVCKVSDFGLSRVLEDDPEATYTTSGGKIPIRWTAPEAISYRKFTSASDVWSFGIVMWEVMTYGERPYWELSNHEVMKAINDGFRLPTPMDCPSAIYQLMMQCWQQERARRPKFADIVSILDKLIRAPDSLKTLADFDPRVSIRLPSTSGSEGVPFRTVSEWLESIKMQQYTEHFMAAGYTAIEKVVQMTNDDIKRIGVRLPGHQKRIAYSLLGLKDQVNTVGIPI", "assay": "Upstate kinase activity inhibition assay EphA2(h)", "conditions": "40 min, read-out: percentage of enzyme activity that remains"}, "[9]": {"target": "Flt3(D835Y)(h) (Homo sapiens, UniProt P36888, D835Y)", "assay": "Upstate kinase activity inhibition assay Flt3(D835Y)(h)", "conditions": "40 min, read-out: percentage of enzyme activity that remains"}, "[10]": {"target": "T5, BrSK1(h) (Homo sapiens, UniProt Q8TDC3)", "T5 construct": "purchased Upstate (KinaseProfiler service)", "assay": "Upstate kinase activity inhibition assay BrSK1(h)", "type": "biochemical", "conditions": "40 min; read-out: percentage of enzyme activity that remains"}, "[11]": {"target": "T6, PKBα(h) (Homo sapiens, UniProt P31749)", "T6 construct": "purchased Upstate (KinaseProfiler service)", "assay": "Upstate kinase activity inhibition assay PKBα(h)", "type": "biochemical", "conditions": "40 min; read-out: percentage of enzyme activity that remains"}, "[12]": {"target": "T7, EphA5(h) (Homo sapiens, UniProt P54756)", "T7 construct": "purchased Upstate (KinaseProfiler service)", "assay": "Upstate kinase activity inhibition assay EphA5(h)", "type": "biochemical", "conditions": "4 μM Compound E"}, "[13]": {"target": "T8, PrKX(h) (Homo sapiens, UniProt P51817)", "T8 construct": "purchased Upstate (KinaseProfiler service)", "assay": "Upstate kinase activity inhibition assay PrKX(h)", "type": "biochemical", "conditions": "40 min; read-out: percentage of enzyme activity that remains"}, "[14]": {"target": "T9, WNK2(h) (Homo sapiens, UniProt Q9Y3S1)", "T9 construct": "purchased Upstate (KinaseProfiler service)", "assay": "Upstate kinase activity inhibition assay WNK2(h)", "type": "biochemical", "conditions": "40 min; read-out: percentage of enzyme activity that remains"}, "[15]": {"target": "T10, CDK2/cyclinA(h) (Homo sapiens, UniProt P24941)", "T10 construct": "purchased Upstate (KinaseProfiler service)", "assay": "Upstate kinase activity inhibition assay CDK2/cyclinA(h)", "type": "biochemical", "conditions": "0.2 μM Compound E"}, "[16]": {"target": "T11, PKG1β(h) (Homo sapiens, UniProt Q13976)", "T11 construct": "purchased Upstate (KinaseProfiler service)", "assay": "Upstate kinase activity inhibition assay PKG1β(h)", "type": "biochemical", "conditions": "40 min; read-out: percentage of enzyme activity that remains"}, "[17]": {"target": "CDK1/cyclinB(h) (Homo sapiens, UniProt P06493)", "assay": "Upstate kinase activity inhibition assay CDK1/cyclinB(h)", "conditions": "40 min, read-out: percentage of enzyme activity that remains"}, "[18]": {"target": "T12, DDR2(h) (Homo sapiens, UniProt Q16832)", "T12 construct": "purchased Upstate (KinaseProfiler service)", "assay": "Upstate kinase activity inhibition assay DDR2(h)", "type": "biochemical", "conditions": "40 min; read-out: percentage of enzyme activity that remains"}, "[19]": {"target": "T13, CSK(h) (Homo sapiens, UniProt P41240)", "T13 construct": "purchased Upstate (KinaseProfiler service)", "assay": "Upstate kinase activity inhibition assay CSK(h)", "type": "biochemical"}, "[20]": {"target": "T14, c-RAF(h) (Homo sapiens, UniProt P04049, Y340D/Y341D)", "T14 construct": "purchased Upstate (KinaseProfiler service)", "T14 sequence (P04049 306-648 Y340D/Y341D limits assumed)": "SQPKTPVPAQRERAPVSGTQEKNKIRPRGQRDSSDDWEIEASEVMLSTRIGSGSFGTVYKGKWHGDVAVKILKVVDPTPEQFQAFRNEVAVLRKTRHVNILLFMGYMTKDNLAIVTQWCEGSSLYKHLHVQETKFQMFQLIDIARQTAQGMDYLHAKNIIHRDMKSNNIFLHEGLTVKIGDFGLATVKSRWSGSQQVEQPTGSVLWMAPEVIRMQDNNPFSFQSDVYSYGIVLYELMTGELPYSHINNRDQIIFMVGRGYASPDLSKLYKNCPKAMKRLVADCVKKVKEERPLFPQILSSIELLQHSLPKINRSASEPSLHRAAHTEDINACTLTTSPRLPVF", "assay": "Upstate kinase activity inhibition assay c-RAF(h)", "type": "biochemical", "conditions": "40 min; read-out: percentage of enzyme activity that remains"}, "[21]": {"target": "MuSK(h) (Homo sapiens, UniProt O15146)", "sequence (O15146 24-869)": "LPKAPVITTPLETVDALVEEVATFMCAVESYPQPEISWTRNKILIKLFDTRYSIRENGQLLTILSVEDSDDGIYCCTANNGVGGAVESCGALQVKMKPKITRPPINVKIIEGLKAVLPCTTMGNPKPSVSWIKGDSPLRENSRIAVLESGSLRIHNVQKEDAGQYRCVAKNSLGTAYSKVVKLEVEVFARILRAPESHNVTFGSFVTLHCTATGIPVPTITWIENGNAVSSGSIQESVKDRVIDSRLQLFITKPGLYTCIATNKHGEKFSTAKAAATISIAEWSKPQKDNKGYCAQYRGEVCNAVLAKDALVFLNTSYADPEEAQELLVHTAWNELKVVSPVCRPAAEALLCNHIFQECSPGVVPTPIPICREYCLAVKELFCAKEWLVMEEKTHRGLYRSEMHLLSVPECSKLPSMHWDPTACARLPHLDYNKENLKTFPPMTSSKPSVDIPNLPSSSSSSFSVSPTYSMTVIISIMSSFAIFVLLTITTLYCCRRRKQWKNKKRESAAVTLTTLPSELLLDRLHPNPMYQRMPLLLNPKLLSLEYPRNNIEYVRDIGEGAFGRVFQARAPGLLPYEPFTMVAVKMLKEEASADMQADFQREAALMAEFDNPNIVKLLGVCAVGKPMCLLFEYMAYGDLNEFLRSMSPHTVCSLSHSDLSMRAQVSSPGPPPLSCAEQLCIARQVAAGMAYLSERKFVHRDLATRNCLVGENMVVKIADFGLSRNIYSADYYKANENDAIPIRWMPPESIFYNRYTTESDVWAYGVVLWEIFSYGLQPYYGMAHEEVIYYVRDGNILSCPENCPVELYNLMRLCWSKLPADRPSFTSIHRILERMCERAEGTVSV", "assay": "Upstate kinase activity inhibition assay MuSK(h)", "conditions": "40 min, read-out: percentage of enzyme activity that remains"}, "[22]": {"target": "TrkA(h) (Homo sapiens, UniProt P04629)", "sequence (P04629 33-796)": "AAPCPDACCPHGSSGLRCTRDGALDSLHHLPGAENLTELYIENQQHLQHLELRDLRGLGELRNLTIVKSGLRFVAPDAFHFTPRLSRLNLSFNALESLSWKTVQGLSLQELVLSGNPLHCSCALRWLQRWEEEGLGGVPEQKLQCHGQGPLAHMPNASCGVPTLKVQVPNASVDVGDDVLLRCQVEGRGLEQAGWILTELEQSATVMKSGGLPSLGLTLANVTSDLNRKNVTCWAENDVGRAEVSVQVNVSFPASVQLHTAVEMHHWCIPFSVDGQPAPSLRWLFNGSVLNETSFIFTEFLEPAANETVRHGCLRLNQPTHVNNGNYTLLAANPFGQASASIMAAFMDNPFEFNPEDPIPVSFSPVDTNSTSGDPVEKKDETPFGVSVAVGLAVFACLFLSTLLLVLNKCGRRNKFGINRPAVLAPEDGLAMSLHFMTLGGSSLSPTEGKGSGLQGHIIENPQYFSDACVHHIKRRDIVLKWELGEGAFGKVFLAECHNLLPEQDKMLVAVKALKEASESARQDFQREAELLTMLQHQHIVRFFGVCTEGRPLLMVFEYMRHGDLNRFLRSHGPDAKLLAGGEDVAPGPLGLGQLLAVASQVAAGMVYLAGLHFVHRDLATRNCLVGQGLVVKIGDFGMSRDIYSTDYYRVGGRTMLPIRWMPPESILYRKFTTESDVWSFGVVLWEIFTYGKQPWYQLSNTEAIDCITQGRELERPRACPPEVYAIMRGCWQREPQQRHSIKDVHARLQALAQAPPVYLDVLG", "assay": "Upstate kinase activity inhibition assay TrkA(h)", "conditions": "40 min, read-out: percentage of enzyme activity that remains"}, "[23]": {"target": "SIK(h) (Homo sapiens, UniProt P57059)", "assay": "Upstate kinase activity inhibition assay SIK(h)"}, "[24]": {"target": "CHK1(h) (Homo sapiens, UniProt O14757)", "assay": "Upstate kinase activity inhibition assay CHK1(h)"}, "[25]": {"target": "ALK4(h) (Homo sapiens, UniProt P36896)", "assay": "Upstate kinase activity inhibition assay ALK4(h)", "conditions": "40 min, read-out: percentage of enzyme activity that remains"}, "[26]": {"target": "MST2(h) (Homo sapiens, UniProt Q13188)", "assay": "Upstate kinase activity inhibition assay MST2(h)", "conditions": "40 min, read-out: percentage of enzyme activity that remains"}, "[27]": {"target": "IGF-1R(h) (Homo sapiens, UniProt P08069)", "sequence (P08069 31-1367)": "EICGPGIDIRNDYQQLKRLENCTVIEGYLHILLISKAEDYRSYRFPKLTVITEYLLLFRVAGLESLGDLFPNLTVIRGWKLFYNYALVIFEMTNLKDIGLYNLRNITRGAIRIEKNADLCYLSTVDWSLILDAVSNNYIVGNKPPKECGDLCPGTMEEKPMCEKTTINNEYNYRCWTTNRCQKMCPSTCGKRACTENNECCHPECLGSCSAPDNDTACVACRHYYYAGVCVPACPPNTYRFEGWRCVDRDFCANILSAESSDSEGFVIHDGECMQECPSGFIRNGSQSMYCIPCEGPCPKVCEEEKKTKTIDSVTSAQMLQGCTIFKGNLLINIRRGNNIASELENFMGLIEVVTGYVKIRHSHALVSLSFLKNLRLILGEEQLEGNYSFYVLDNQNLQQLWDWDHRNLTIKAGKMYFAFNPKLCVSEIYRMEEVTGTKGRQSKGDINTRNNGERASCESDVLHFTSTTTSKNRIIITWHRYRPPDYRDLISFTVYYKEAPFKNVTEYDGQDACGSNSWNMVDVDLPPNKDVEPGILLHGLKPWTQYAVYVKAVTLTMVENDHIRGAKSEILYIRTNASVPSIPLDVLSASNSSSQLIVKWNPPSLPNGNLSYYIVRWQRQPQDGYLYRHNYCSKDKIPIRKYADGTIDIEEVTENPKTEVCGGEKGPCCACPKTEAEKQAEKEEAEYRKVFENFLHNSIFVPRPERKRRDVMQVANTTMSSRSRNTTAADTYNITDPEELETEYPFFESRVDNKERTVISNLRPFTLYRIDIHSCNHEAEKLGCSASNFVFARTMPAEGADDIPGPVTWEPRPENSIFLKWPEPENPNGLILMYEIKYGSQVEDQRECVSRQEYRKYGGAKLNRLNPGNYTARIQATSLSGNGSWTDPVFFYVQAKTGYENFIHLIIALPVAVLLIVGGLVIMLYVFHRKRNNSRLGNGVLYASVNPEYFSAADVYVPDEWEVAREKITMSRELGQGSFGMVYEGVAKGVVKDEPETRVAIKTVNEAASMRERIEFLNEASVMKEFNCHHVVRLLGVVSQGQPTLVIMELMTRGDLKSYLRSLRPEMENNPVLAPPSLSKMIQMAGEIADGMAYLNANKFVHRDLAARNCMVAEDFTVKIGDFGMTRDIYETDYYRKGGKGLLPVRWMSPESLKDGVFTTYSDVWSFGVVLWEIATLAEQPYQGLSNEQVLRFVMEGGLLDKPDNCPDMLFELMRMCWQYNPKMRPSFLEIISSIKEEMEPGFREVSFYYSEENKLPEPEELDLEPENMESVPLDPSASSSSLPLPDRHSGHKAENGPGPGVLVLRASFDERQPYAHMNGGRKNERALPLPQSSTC", "assay": "Upstate kinase activity inhibition assay IGF-1R(h)", "conditions": "40 min, read-out: percentage of enzyme activity that remains"}, "[28]": {"target": "Yes(h) (Homo sapiens, UniProt P07947)", "assay": "Upstate kinase activity inhibition assay Yes(h)", "conditions": "40 min, read-out: percentage of enzyme activity that remains"}, "[29]": {"target": "GSK3α(h) (Homo sapiens, UniProt P49840)", "assay": "Upstate kinase activity inhibition assay GSK3α(h)", "conditions": "40 min, read-out: percentage of enzyme activity that remains"}, "[30]": {"target": "T15, CK2α2(h) (Homo sapiens, UniProt P19784)", "T15 construct": "purchased Upstate (KinaseProfiler service)", "assay": "Upstate kinase activity inhibition assay CK2α2(h)", "type": "biochemical", "conditions": "40 min; read-out: percentage of enzyme activity that remains"}}}
{"smiles": "Cc1cc(Nc2cc(N3CCN(C)CC3)nc(Sc3ccc(NC(=O)C4CC4)cc3)n2)n[nH]1", "note": "[Compound E, Cyclopropane carboxylic acid {4-[4-(4-methyl-piperazin-1-yl)-6-(5-methyl-2H-pyrazol-3-ylamino)-pyrimidin-2-ylsulphanyl]-phenyl}-amide]", "values": [{"measurement": "percentage of enzyme activity that remains", "setting": "[1]; 0.2 μM Compound E", "result": 107, "unit": "%"}, {"measurement": "percentage of enzyme activity that remains", "setting": "[1]; 4 μM Compound E", "result": 105, "unit": "%"}, {"measurement": "remaining activity at 0.2 µM", "setting": "[2]", "result": 113, "unit": "%"}, {"measurement": "remaining activity at 4 µM", "setting": "[2]", "result": 109, "unit": "%"}, {"measurement": "remaining activity at 0.2 µM", "setting": "[3]", "result": 100, "unit": "%"}, {"measurement": "remaining activity at 4 µM", "setting": "[3]", "result": 59, "unit": "%"}, {"measurement": "remaining activity at 0.2 µM", "setting": "[4]", "result": 89, "unit": "%"}, {"measurement": "remaining activity at 4 µM", "setting": "[4]", "result": 83, "unit": "%"}, {"measurement": "percentage of enzyme activity that remains", "setting": "[5]", "result": 77, "unit": "%"}, {"measurement": "remaining activity at 0.2 µM", "setting": "[6]", "result": 102, "unit": "%"}, {"measurement": "remaining activity at 4 µM", "setting": "[6]", "result": 83, "unit": "%"}, {"measurement": "remaining activity at 0.2 µM", "setting": "[7]", "result": 21, "unit": "%"}, {"measurement": "remaining activity at 4 µM", "setting": "[7]", "result": 7, "unit": "%"}, {"measurement": "remaining activity at 0.2 µM", "setting": "[8]", "result": 78, "unit": "%"}, {"measurement": "remaining activity at 4 µM", "setting": "[8]", "result": 10, "unit": "%"}, {"measurement": "remaining activity at 0.2 µM", "setting": "[9]", "result": 50, "unit": "%"}, {"measurement": "remaining activity at 4 µM", "setting": "[9]", "result": 7, "unit": "%"}, {"measurement": "remaining activity at 0.2 µM", "setting": "[10]", "result": 115, "unit": "%"}, {"measurement": "remaining activity at 4 µM", "setting": "[10]", "result": 97, "unit": "%"}, {"measurement": "remaining activity at 0.2 µM", "setting": "[11]", "result": 110, "unit": "%"}, {"measurement": "remaining activity at 4 µM", "setting": "[11]", "result": 110, "unit": "%"}, {"measurement": "percentage of enzyme activity that remains", "setting": "[12]", "result": 57, "unit": "%"}, {"measurement": "remaining activity at 0.2 µM", "setting": "[13]", "result": 97, "unit": "%"}, {"measurement": "remaining activity at 4 µM", "setting": "[13]", "result": 96, "unit": "%"}, {"measurement": "remaining activity at 0.2 µM", "setting": "[14]", "result": 107, "unit": "%"}, {"measurement": "remaining activity at 4 µM", "setting": "[14]", "result": 90, "unit": "%"}, {"measurement": "percentage of enzyme activity that remains", "setting": "[15]", "result": 99, "unit": "%"}, {"measurement": "remaining activity at 0.2 µM", "setting": "[16]", "result": 87, "unit": "%"}, {"measurement": "remaining activity at 4 µM", "setting": "[16]", "result": 87, "unit": "%"}, {"measurement": "remaining activity at 0.2 µM", "setting": "[17]", "result": 108, "unit": "%"}, {"measurement": "remaining activity at 4 µM", "setting": "[17]", "result": 102, "unit": "%"}, {"measurement": "remaining activity at 0.2 µM", "setting": "[18]", "result": 100, "unit": "%"}, {"measurement": "percentage of enzyme activity that remains", "setting": "[19]; 0.2 μM Compound E", "result": 108, "unit": "%"}, {"measurement": "percentage of enzyme activity that remains", "setting": "[19]; 4 μM Compound E", "result": 87, "unit": "%"}, {"measurement": "remaining activity at 0.2 µM", "setting": "[20]", "result": 106, "unit": "%"}, {"measurement": "remaining activity at 4 µM", "setting": "[20]", "result": 100, "unit": "%"}, {"measurement": "remaining activity at 0.2 µM", "setting": "[21]", "result": 89, "unit": "%"}, {"measurement": "remaining activity at 4 µM", "setting": "[21]", "result": 8, "unit": "%"}, {"measurement": "remaining activity at 0.2 µM", "setting": "[22]", "result": 98, "unit": "%"}, {"measurement": "remaining activity at 4 µM", "setting": "[22]", "result": 8, "unit": "%"}, {"measurement": "percentage of enzyme activity that remains", "setting": "[23]; 0.2 μM Compound E", "result": 95, "unit": "%"}, {"measurement": "percentage of enzyme activity that remains", "setting": "[23]; 4 μM Compound E", "result": 61, "unit": "%"}, {"measurement": "percentage of enzyme activity that remains", "setting": "[24]; 0.2 μM Compound E", "result": 99, "unit": "%"}, {"measurement": "percentage of enzyme activity that remains", "setting": "[24]; 4 μM Compound E", "result": 92, "unit": "%"}, {"measurement": "remaining activity at 0.2 µM", "setting": "[25]", "result": 103, "unit": "%"}, {"measurement": "remaining activity at 4 µM", "setting": "[25]", "result": 124, "unit": "%"}, {"measurement": "remaining activity at 0.2 µM", "setting": "[26]", "result": 92, "unit": "%"}, {"measurement": "remaining activity at 4 µM", "setting": "[26]", "result": 74, "unit": "%"}, {"measurement": "remaining activity at 0.2 µM", "setting": "[27]", "result": 76, "unit": "%"}, {"measurement": "remaining activity at 4 µM", "setting": "[27]", "result": 26, "unit": "%"}, {"measurement": "remaining activity at 0.2 µM", "setting": "[28]", "result": 39, "unit": "%"}, {"measurement": "remaining activity at 4 µM", "setting": "[28]", "result": 2, "unit": "%"}, {"measurement": "remaining activity at 0.2 µM", "setting": "[29]", "result": 106, "unit": "%"}, {"measurement": "remaining activity at 4 µM", "setting": "[29]", "result": 102, "unit": "%"}, {"measurement": "remaining activity at 0.2 µM", "setting": "[30]", "result": 100, "unit": "%"}]}
